{
  "source": "PubChem BioAssay AID1259409",
  "about": "(Chemical Carcinogenesis Research Information System (CCRIS), 2018)",
  "origin": "cited, not measured here",
  "test_system": "rodent chemically induced tumor inhibition, incidence and multiplicity",
  "test": "CCRIS tumor inhibitor studies",
  "settings": "Route [Inhibitor]: ORAL, Species: RAT, Strain/Sex: F344/MALE, Promoter: NONE USED",
  "data": [
    {"smiles": "O", "values": [
      {"measurement": "tumour outcome (control, treated, inhibition, significance)", "setting": "Carcinogen: 1,2-DIMETHYLHYDRAZINE, 540-73-8, Dose [Inhibitor]: 0, 250 PPM IN DIET BEGINNING POST CARCINOGEN TREATMENT AND CONTINUING FOR DURATION OF STUDY (STUDY DURATION: 365 D), Target Tissue: Type of Lesion: LARGE INTESTINE: ADENOMA OR ADENOCARCINOMA, Dose [Carcinogen]: 20 MG/KG BW 10 TIMES", "result": "14/30 (47%), 11/32 (34%), 28%, not significant"},
      {"measurement": "tumour outcome (control, treated, inhibition, significance)", "setting": "Carcinogen: 1,2-DIMETHYLHYDRAZINE, 540-73-8, Dose [Inhibitor]: 0, 250 PPM IN DIET BEGINNING POST CARCINOGEN TREATMENT AND CONTINUING FOR DURATION OF STUDY (STUDY DURATION: 365 D), Target Tissue: Type of Lesion: SMALL INTESTINE: ADENOCARCINOMA, Dose [Carcinogen]: 20 MG/KG BW 10 TIMES", "result": "6/30 (20%), 5/32 (16%), 20%, not significant"},
      {"measurement": "tumour outcome (control, treated, inhibition, significance)", "setting": "Carcinogen: 1,2-DIMETHYLHYDRAZINE, 540-73-8, Dose [Inhibitor]: 0, 500 PPM IN DIET BEGINNING POST CARCINOGEN TREATMENT AND CONTINUING FOR DURATION OF STUDY (STUDY DURATION: 365 D), Target Tissue: Type of Lesion: LARGE INTESTINE: ADENOMA OR ADENOCARCINOMA, Dose [Carcinogen]: 20 MG/KG BW 10 TIMES", "result": "14/30 (47%), 16/32 (50%), -6%, not significant"},
      {"measurement": "tumour outcome (control, treated, inhibition, significance)", "setting": "Carcinogen: 1,2-DIMETHYLHYDRAZINE, 540-73-8, Dose [Inhibitor]: 0, 500 PPM IN DIET BEGINNING POST CARCINOGEN TREATMENT AND CONTINUING FOR DURATION OF STUDY (STUDY DURATION: 365 D), Target Tissue: Type of Lesion: SMALL INTESTINE: ADENOMA, Dose [Carcinogen]: 20 MG/KG BW 10 TIMES", "result": "6/30 (20%), 3/32 (9%), 55%, not significant"},
      {"measurement": "tumour outcome (control, treated, inhibition, significance)", "setting": "Carcinogen: 1,2-DIMETHYLHYDRAZINE, 540-73-8, Dose [Inhibitor]: 0, 1000 PPM IN DIET BEGINNING POST CARCINOGEN TREATMENT AND CONTINUING FOR DURATION OF STUDY (STUDY DURATION: 365 D), Target Tissue: Type of Lesion: LARGE INTESTINE: ADENOMA OR ADENOCARCINOMA, Dose [Carcinogen]: 20 MG/KG BW 10 TIMES", "result": "14/30 (47%), 11/32 (34%), 28%, not significant"},
      {"measurement": "tumour outcome (control, treated, inhibition, significance)", "setting": "Carcinogen: 1,2-DIMETHYLHYDRAZINE, 540-73-8, Dose [Inhibitor]: 0, 1000 PPM IN DIET BEGINNING POST CARCINOGEN TREATMENT AND CONTINUING FOR DURATION OF STUDY (STUDY DURATION: 365 D), Target Tissue: Type of Lesion: SMALL INTESTINE: ADENOCARCINOMA, Dose [Carcinogen]: 20 MG/KG BW 10 TIMES", "result": "6/30 (20%), 6/32 (19%), 5%, not significant"},
      {"measurement": "tumour outcome (control, treated, inhibition, significance)", "setting": "Carcinogen: 1,2-DIMETHYLHYDRAZINE, 540-73-8, Dose [Inhibitor]: 0, 2000 PPM IN DIET BEGINNING POST CARCINOGEN TREATMENT AND CONTINUING FOR DURATION OF STUDY (STUDY DURATION: 365 D), Target Tissue: Type of Lesion: LARGE INTESTINE: ADENOCARCINOMA, Dose [Carcinogen]: 20 MG/KG BW 10 TIMES", "result": "11/30 (37%), 11/31 (35%), 5%, not significant"},
      {"measurement": "tumour outcome (control, treated, inhibition, significance)", "setting": "Carcinogen: 1,2-DIMETHYLHYDRAZINE, 540-73-8, Dose [Inhibitor]: 0, 2000 PPM IN DIET BEGINNING POST CARCINOGEN TREATMENT AND CONTINUING FOR DURATION OF STUDY (STUDY DURATION: 365 D), Target Tissue: Type of Lesion: SMALL INTESTINE: ADENOCARCINOMA, Dose [Carcinogen]: 20 MG/KG BW 10 TIMES", "result": "6/30 (20%), 10/31 (32%), -60%, not significant"},
      {"measurement": "tumour outcome (control, treated, inhibition, significance)", "setting": "Carcinogen: METHYLAZOXYMETHANOL ACETATE, 592-62-1, Dose [Inhibitor]: 0, 500 PPM IN DIET BEGINNING 2 WK POST CARCINOGEN TREATMENT AND CONTINUING FOR DURATION OF STUDY (STUDY DURATION: 255 D), Target Tissue: Type of Lesion: LARGE INTESTINE: ADENOMA OR ADENOCARCINOMA, Dose [Carcinogen]: 25 MG/KG BW 1/WK FOR 3 WK", "result": "17/32 (53%), 3/30 (10%), 81%, p<0.0002"},
      {"measurement": "tumour outcome (control, treated, inhibition, significance)", "setting": "Carcinogen: METHYLAZOXYMETHANOL ACETATE, 592-62-1, Dose [Inhibitor]: 0, 500 PPM IN DIET BEGINNING 2 WK POST CARCINOGEN TREATMENT AND CONTINUING FOR DURATION OF STUDY (STUDY DURATION: 255 D), Target Tissue: Type of Lesion: SMALL INTESTINE: ADENOCARCINOMA, Dose [Carcinogen]: 25 MG/KG BW 1/WK FOR 3 WK", "result": "2/32 (6%), 2/30 (7%), -17%, not significant"},
      {"measurement": "tumour outcome (control, treated, inhibition, significance)", "setting": "Carcinogen: METHYLAZOXYMETHANOL ACETATE, 592-62-1, Dose [Inhibitor]: 0, 1000 PPM IN DIET BEGINNING 2 WK POST CARCINOGEN TREATMENT AND CONTINUING FOR DURATION OF STUDY (STUDY DURATION: 255 D, Target Tissue: Type of Lesion: LARGE INTESTINE: ADENOMA OR ADENOCARCINOMA, Dose [Carcinogen]: 25 MG/KG BW 1/WK FOR 3 WK", "result": "17/32 (53%), 9/30 (30%), 43%, not significant"},
      {"measurement": "tumour outcome (control, treated, inhibition, significance)", "setting": "Carcinogen: METHYLAZOXYMETHANOL ACETATE, 592-62-1, Dose [Inhibitor]: 0, 1000 PPM IN DIET BEGINNING 2 WK POST CARCINOGEN TREATMENT AND CONTINUING FOR DURATION OF STUDY (STUDY DURATION: 255 D, Target Tissue: Type of Lesion: SMALL INTESTINE: ADENOCARCINOMA, Dose [Carcinogen]: 25 MG/KG BW 1/WK FOR 3 WK", "result": "2/32 (6%), 2/30 (7%), -17%, not significant"},
      {"measurement": "tumour outcome (control, treated, inhibition, significance)", "setting": "Carcinogen: METHYLAZOXYMETHANOL ACETATE, 592-62-1, Dose [Inhibitor]: 500 PPM IN DIET BEGINNING 2 WK POST LAST CARCINOGEN DOSE AND CONTINUING FOR 227 D (STUDY DURATION: 255 D), Target Tissue: Type of Lesion: LARGE INTESTINE: ADENOMA OR ADENOCARCINOMA, Dose [Carcinogen]: 25 MG/KG 1/WK FOR 3 WK", "result": "17/32 (53%), 3/30 (10%), 81%, p<0.0002"},
      {"measurement": "tumour outcome (control, treated, inhibition, significance)", "setting": "Carcinogen: METHYLAZOXYMETHANOL ACETATE, 592-62-1, Dose [Inhibitor]: 1000 PPM IN DIET BEGINNING 2 WK POST LAST CARCINOGEN DOSE AND CONTINUING FOR 227 D (STUDY DURATION: 255 D), Target Tissue: Type of Lesion: LARGE INTESTINE: ADENOMA OR ADENOCARCINOMA, Dose [Carcinogen]: 25 MG/KG 1/WK FOR 3 WK", "result": "17/32 (53%), 9/30 (30%), 43%, not calculated"}
    ]}
  ]
}
